The text below walks through data of patent US12115247B2, “Structured orodispersible films” (LTS LOHMANN THERAPIE-SYSTEME AG, priority 2017, dated 2024).

The series can be described thus: Loading of porous orodispersible film with anthraquinone suspension (coating cycles). In kind it is physicochemical. The text has this:
For these tests an anthraquinone suspension (x50=400 nm) was used. These contained, in addition to the anthraquinone, also HPC as stabiliser in a concentration of cHPC=0.25 (in relation to the total quantity of anthraquinone in the suspension). The concentration of the suspension was varied in a range of from 0.05 to 0.2, and the suspension was applied between one and five times to the film. The suspension was applied to the film surface via an application nozzle with a volume of […] at a rate of 220 mm/min. The film used for the tests was a film with cHPC=0.28, as described in Example 1. The loading with anthraquinone was determined for each of the obtained films.

Compound `O=C1c2ccccc2C(=O)c2ccccc21` [anthraquinone] showed an anthraquinone loading (film cHPC=0.28, anthraquinone concentration of 0.2, five coating cycles) of 4.9 mg/cm^2. Also, the highest loading (film cHPC=0.28, anthraquinone concentration of 0.2, five coating cycles, suspension also contains HPC stabiliser) amounted to 6.1 mg/cm^2. The “maximum active ingredient loading” value (per standard orodispersible film of 6 cm^2) was “approximately 30 mg”.
